Results from the supplement of paper PMC10307832.

Key:
Experiment in all cases: relative viability (nuclei count vs DMSO), 5 days (fraction); higher = more cells survive
Fedratinib + Phenformin = compound: Cc1cnc(Nc2ccc(OCCN3CCCC3)cc2)nc1Nc1cccc(S(=O)(=O)NC(C)(C)C)c1 [Fedratinib] + N=C(N)NC(=N)NCCc1ccccc1 [Phenformin] (partner 250 µM)
Method in brief: (§1)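 Five library-drug doses in √10 steps were combined with a fixed anchor-drug dose, or a single drug was given alone, by pin tool to lung cancer cell lines in 1536-well plates the day after seeding. Nuclei were stained and counted after 5 days. Relative viability is the nuclei count in treated wells over that in vehicle wells, taken as the median of duplicate plates.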

GW-2580 + Pictilisib = compound: COC1=CC=C(C=C1)COC2=C(C=C(C=C2)CC3=CN=C(N=C3N)N)OC [GW-2580] + CS(=O)(=O)N1CCN(Cc2cc3nc(-c4cccc5[nH]ncc45)nc(N4CCOCC4)c3s2)CC1 [Pictilisib] (partner 1 µM)
Method in brief: as §1

GW-2580 + Lapatinib = compound: COC1=CC=C(C=C1)COC2=C(C=C(C=C2)CC3=CN=C(N=C3N)N)OC [GW-2580] + CS(=O)(=O)CCNCc1ccc(-c2ccc3ncnc(Nc4ccc(OCc5cccc(F)c5)c(Cl)c4)c3c2)o1 [Lapatinib] (partner 2 µM)
Method in brief: as §1

Fedratinib + Luminespib = compound: Cc1cnc(Nc2ccc(OCCN3CCCC3)cc2)nc1Nc1cccc(S(=O)(=O)NC(C)(C)C)c1 [Fedratinib] + CCNC(=O)c1noc(-c2cc(C(C)C)c(O)cc2O)c1-c1ccc(CN2CCOCC2)cc1 [Luminespib] (partner 0.01 µM)
Method in brief: as §1

Fedratinib + Alpelisib = compound: Cc1cnc(Nc2ccc(OCCN3CCCC3)cc2)nc1Nc1cccc(S(=O)(=O)NC(C)(C)C)c1 [Fedratinib] + Cc1nc(NC(=O)N2CCC[C@H]2C(N)=O)sc1-c1ccnc(C(C)(C)C(F)(F)F)c1 [Alpelisib] (partner 2 µM)
Method in brief: as §1

Fedratinib + Lapatinib = compound: Cc1cnc(Nc2ccc(OCCN3CCCC3)cc2)nc1Nc1cccc(S(=O)(=O)NC(C)(C)C)c1 [Fedratinib] + CS(=O)(=O)CCNCc1ccc(-c2ccc3ncnc(Nc4ccc(OCc5cccc(F)c5)c(Cl)c4)c3c2)o1 [Lapatinib] (partner 2 µM)
Method in brief: as §1

Row | Cell Line | relative viability (Fedratinib + Phenformin; first compound 0.1 µM) | relative viability (Fedratinib + Phenformin; first compound 0.3162 µM) | relative viability (Fedratinib + Phenformin; first compound 1 µM) | relative viability (GW-2580 + Pictilisib; first compound 0.08 µM) | relative viability (GW-2580 + Pictilisib; first compound 0.8 µM) | relative viability (GW-2580 + Pictilisib; first compound 2.53 µM) | relative viability (GW-2580 + Pictilisib; first compound 8 µM) | relative viability (GW-2580 + Lapatinib; first compound 0.08 µM) | relative viability (GW-2580 + Lapatinib; first compound 0.8 µM) | relative viability (GW-2580 + Lapatinib; first compound 2.53 µM) | relative viability (GW-2580 + Lapatinib; first compound 8 µM) | relative viability (Fedratinib + Luminespib; first compound 0.1 µM) | relative viability (Fedratinib + Luminespib; first compound 0.3162 µM) | relative viability (Fedratinib + Luminespib; first compound 1 µM) | relative viability (Fedratinib + Alpelisib; first compound 0.3162 µM) | relative viability (Fedratinib + Alpelisib; first compound 1 µM) | relative viability (Fedratinib + Lapatinib; first compound 0.1 µM) | relative viability (Fedratinib + Lapatinib; first compound 0.3162 µM) | relative viability (Fedratinib + Lapatinib; first compound 1 µM) | relative viability (Fedratinib + Alpelisib; first compound 0.1 µM)
1 | LK-2 | 0.293 | 0.452 | 0.201 | 0.476 | 0.569 | 0.428 | 0.552 | 0.972 | 0.952 | 0.513 | 0.735 | 0.173 | 0.169 | 0.186 | 0.936 | 0.936 | 0.798 | 0.828 | 0.638 | 
2 | NCI-H1437 | 0.318 | 0.346 | 0.349 | 0.465 | 0.514 | 0.378 | 0.387 | 0.82 | 0.965 | 0.723 | 0.781 | 1.11 | 1.04 | 1.13 | 0.975 | 0.859 | 0.821 | 0.827 | 0.19 | 0.826
3 | COR-L23 | 0.438 | 0.412 | 0.442 | 0.834 | 0.969 | 0.695 | 0.888 | 1.26 | 1.22 | 1.06 | 1.06 | 0.816 | 0.671 | 0.602 | 0.74 | 0.778 | 1.04 | 0.999 | 1.07 | 0.752
4 | ABC-1 | 0.265 | 0.23 | 0.209 | 0.761 | 0.564 | 0.571 | 0.679 | 1.42 | 1.03 |  | 1.18 | 0.415 | 0.655 | 0.607 | 0.994 | 1.12 | 1.28 | 1.16 | 1.46 | 0.979
5 | NCI-H522 | 0.588 | 0.585 | 0.661 |  |  |  |  |  |  |  |  | 1.14 | 1.21 | 1.14 |  |  |  |  |  | 
6 | NCI-H838 | 0.468 | 0.67 | 0.414 | 0.569 | 0.462 | 0.326 | 0.614 | 0.994 | 1.11 | 0.789 | 0.987 | 0.454 | 0.379 | 0.334 | 0.954 | 0.954 | 0.875 | 1.02 | 0.205 | 0.979
7 | SW 900 | 0.445 | 0.672 | 0.327 |  |  |  |  |  |  |  |  | 0.147 | 0.171 | 0.167 |  |  |  |  |  | 
8 | A549 |  | 0.169 | 0.165 | 0.575 | 0.491 | 0.486 | 0.303 | 1.11 | 1.04 | 0.89 | 0.869 |  |  |  | 0.691 | 0.622 | 1.16 | 0.907 | 0.875 | 0.74
9 | A-427 | 0.26 | 0.298 | 0.147 | 0.73 | 0.661 | 0.678 | 0.655 | 1.17 | 1.15 | 0.98 | 1.07 | 0.901 | 0.884 | 0.921 | 0.949 | 0.959 | 1.06 | 0.984 | 0.591 | 1.07
10 | NCI-H1792 |  | 0.77 | 0.338 | 0.279 | 0.272 | 0.171 | 0.223 | 0.936 | 1.1 | 0.484 | 1.1 | 0.231 | 0.419 | 0.362 | 0.662 | 0.666 | 0.879 | 0.905 | 0.827 | 0.458
11 | NCI-H1703 |  |  |  | 0.218 | 0.295 | 0.267 | 0.234 | 1.1 | 1.32 | 1.2 | 0.946 |  |  |  | 0.361 | 0.25 | 0.675 | 0.834 | 0.667 | 0.161
12 | LCLC-103H | 0.32 | 0.284 | 0.363 | 0.648 | 0.638 | 0.649 | 0.599 |  |  |  |  | 0.9 | 0.946 | 0.937 | 0.816 | 0.938 |  |  |  | 1.07
13 | ChaGo-K-1 | 0.436 | 0.432 | 0.445 | 0.735 | 1.15 | 0.526 | 0.655 |  |  |  |  | 0.61 | 0.548 | 0.561 |  |  |  |  |  | 
14 | Calu-6 |  |  |  | 0.99 | 1.08 | 0.908 | 1.05 | 1.14 | 1.18 | 1.06 | 1.08 |  |  |  | 0.906 | 0.801 | 1.29 | 1 | 0.945 | 0.915
15 | HCC-366 | 0.482 | 0.673 | 0.642 | 0.148 | 0.199 | 0.141 | 0.137 | 1.08 | 1.02 | 0.977 | 1.19 |  |  |  | 0.458 | 0.356 | 1.34 | 0.989 | 0.304 | 0.273
16 | EBC-1 |  |  |  | 0.309 | 0.374 | 0.323 | 0.296 | 0.193 | 0.219 | 0.214 | 0.21 |  |  |  | 0.808 | 0.592 | 0.175 | 0.193 | 0.177 | 0.743
17 | NCI-H1299 |  |  |  | 0.776 | 0.736 | 0.773 | 0.748 | 1.04 | 0.979 | 0.959 | 0.886 |  |  |  | 1.07 | 1.05 | 0.963 | 0.96 | 0.983 | 1.08
18 | NCI-H2342 | 0.674 | 0.537 | 0.634 |  |  |  |  |  |  |  |  | 0.695 | 0.874 | 0.837 |  |  |  |  |  | 
19 | IA-LM |  |  |  | 0.315 | 0.324 | 0.398 | 0.405 | 0.997 | 0.862 | 0.572 | 0.876 |  |  |  | 0.758 | 0.658 | 0.873 | 0.632 | 0.46 | 0.563
20 | NCI-H441 | 0.812 | 0.747 | 0.727 | 0.505 | 0.587 | 0.379 | 0.436 |  |  |  |  | 0.331 | 0.262 | 0.343 | 0.655 | 0.557 |  |  |  | 0.607
